“And” between values parts separate entries of the source, which are not always exact repeats. Equal values may be shown once.
Tests used:
[1] = Solubility in PBS by visual inspection
Method: SUPPORTING INFORMATION: Method Section.
Sex as a biological variable.
All peptides were ordered from WuXI AppTec (Shanghai, China) or TAG-Copenhagen […]
Assessment of solubility and stability of mPD5.
Solubility was determined by visual inspection of samples dissolved in increasing concentration in 10 mM PBS as judged by full transparency and monophasic appearance.
Stability was addressed by […] for four concentrations (2, 20, 50, and 200 µM), by leaving mPD5 in PBS at 5 °C and 25 °C for 30 days followed by HPLC-UV-MS.
Protein expression and purification.
Full length rat PICK1 (pET41) was, as described earlier (1), expressed in BL21-DE3-pLysS and grown at 37 °C, induced at OD600= 0.6 with 1 mM IPTG, and grown for 16 hours at 20 °C.
Cultures were harvested and re-suspended in 50 mM Tris, 125 mM NaCl, 2 mM DTT (Sigma), 1% Triton X-100 (Sigma), 20 µg/mL DNAse 1 and half a tablet of cOmplete protease inhibitor cocktail (Roche) pr. 1 L culture. The resuspended pellets were frozen at -80 °C for later purification. […] PICK1 was eluted on ice and concentration was measured on a NanoDrop 3000.
Fluorescence polarization binding. […]
binding surface 96 well plates (Sigma-Aldrich, Ref. no. 3686). The plates were incubated 20 min on ice and the fluorescence polarization was measured on an Omega POLARstar plate reader (BMG LABTECH) using excitation filter of 485 nm and long pass emission filter of 520 nm. […]

[2] = test system: mice, spared nerve injury (SNI) model; assay: SNI model, marble-burying test; format: in vivo, mouse
Method: solution (0.05 mg/kg) injected s.c. 30 min before surgery (10 μL/g). For surgery, mice were anaesthetised with ketamine (100 mg/kg, i.p.) and xylazine (10 mg/kg, i.p.) (volume 10 µL/g) with 100 μL of 1% xylocaine solution infiltrated at the site of the incision. The distal trifurcation of the sciatic nerve was identified, and the tibial and common peroneal branches were ligated with polypropylene nonabsorbable 6-0 sutures (Ethicon) and 1 mm was cut out, leaving the sural branch intact. The wound was closed with sutures, and the animals were allowed to recover and returned to their cages. Two subcutaneous injections of buprenorphine (0.05 mg/kg) were performed with an 8 to 12 hours delay decreasing pain due to the surgery […]
Wounds were closed with surgical glue or medical clips and animals were monitored daily for signs of stress or discomfort, but in all cases recovered uneventfully. […]
For the first experiment with sustained administration of mPD5 (Figure 7C), the mice underwent a baseline von Frey reading as described in the “Mechanically-evoked pain (von Frey).”-section and SNI surgery as described in “Induction of neuropathic pain (SNI model).”-section. […] At 4,5 hours after the 10 μmol/kg mPD5 injection paw withdrawal threshold was measured again followed by a s.c. injection of 2 μmol/kg mPD5 in all animals. […]

CCCCCCCCCCCCCC(=O)N(CCOCCOCCC(=O)N[C@@H](Cc1c[nH]cn1)C(=O)N[C@@H](Cc1c[nH]c2ccccc12)C(=O)N[C@@H](CC(C)C)C(=O)N[C@@H](CCCCN)C(=O)N[C@H](C(=O)O)C(C)C)CCOCCOCCC(=O)N[C@@H](Cc1c[nH]cn1)C(=O)N[C@@H](Cc1c[nH]c2ccccc12)C(=O)N[C@@H](CC(C)C)C(=O)N[C@@H](CCCCN)C(=O)N[C@H](C(=O)O)C(C)C [mPD5, myristoyl-NPEG4-(HWLKV)2]
solubility [1]: ≥ 250000 µg/mL and ~130000 µM
marbles buried, individual mice ([2]; 1 hour after s.c. 10 μmol/kg): 6 and 7 and 9 and 8 and 3 and 1 and 5
effect on SNI-induced decrease in marble burying ([2]; female mice, s.c. 10 μmol/kg, to the level of the naive mice): reverted significantly

From publication PMC11530130, “Peripherally restricted PICK1 inhibitor mPD5 ameliorates pain behaviors in murine inflammatory and neuropathic pain models” (JCI Insight, 2024)
